Measured values reported in the supplement of paper PMC11451515.

How the values were obtained:
Assay in all cases: AUC of viability dose-response curve (% viability x log10 dose units); higher = less sensitive
Conditions in all cases: 48 h
[1] = system: P12-Ichikawa
In short: (§1)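 Viability of medium-adapted leukemia cells was measured by CellTiter-Glo One luminescence after 48 h at 37°C with library compounds in DMSO. Doses were 11 threefold steps from 47 μM to 0.79 nM, in 1536-well plates at 500 or 1000 cells/well. Signals were normalised per plate to DMSO and cell-free wells and fitted with a four-parameter log-logistic model on log10 dose. Area under the curve was integrated by trapezoidal rule, with curves exceeding full viability scaled and failed quality-control curves removed.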

[2] = system: SEM cells
In short: as §1

[3] = system: NOMO1
In short: as §1

[4] = RPMI 5 mM glucose + 10% dialyzed FBS

Row | SMILES | AUC of viability dose-response curve ([1]; HPLM + 10% dialyzed FBS) | AUC of viability dose-response curve ([1]; RPMI 5 mM glucose + 10% FBS) | AUC of viability dose-response curve [1, 4] | AUC of viability dose-response curve ([2]; HPLM + 10% dialyzed FBS) | AUC of viability dose-response curve ([2]; RPMI 5 mM glucose + 10% FBS) | AUC of viability dose-response curve [2, 4] | AUC of viability dose-response curve ([3]; HPLM + 10% dialyzed FBS) | AUC of viability dose-response curve ([3]; RPMI 5 mM glucose + 10% FBS) | AUC of viability dose-response curve [3, 4]
1 | Cc1c(N)nc([C@H](CC(N)=O)NC[C@@H](N)C(N)=O)nc1C(=O)N[C@H](C(=O)N[C@@H](C)[C@H](O)[C@@H](C)C(=O)N[C@@H](C(=O)NCCc1nc(-c2nc(C(=O)NCCC[S+](C)C)cs2)cs1)[C@@H](C)O)C(O[C@H]1O[C@H](CO)[C@H](O)[C@@H](O)[C@H]1O[C@H]1O[C@H](CO)[C@@H](O)[C@H](OC(N)=O)[C@@H]1O)c1c[nH]cn1 (stereo partly drawn) | 411 | 378 | 424 | 415 | 382 | 384 | 394 | 416 | 434
2 | C[C@H](NC(=O)Cc1cc(F)cc(F)c1)C(=O)N[C@H](C(=O)OC(C)(C)C)c1ccccc1 | 432 | 428 | 390 | 418 | 456 | 415 | 448 | 397 | 432
3 | COCCn1c2c([n+](Cc3cnccn3)c1C)C(=O)c1ccccc1C2=O | 251 | 247 | 244 | 161 | 209 | 189 | 194 | 232 | 223
4 | COc1ccc(F)c(F)c1C(=O)c1cnc(NC2CCN([S+](C)(=O)[O-])CC2)nc1N | 401 | 358 | 360 | 351 | 344 | 381 | 367 | 380 | 380
5 | CC(=O)OC[C@@H]1O[C@H]([C@H](OC(C)=O)[C@@H]1OC(C)=O)N2\C=C/C(=O)NC2=O | 461 | 444 | 457 | 448 | 462 | 456 | 429 | 440 | 443
6 | Cc1ccc(Nc2cc(-c3cccc(N4C(=O)c5ccccc5C4=O)c3)ncn2)cc1N[S+](C)(=O)[O-] | 466 | 465 | 474 | 468 | 463 | 468 | 461 | 473 | 469
7 | COc1ccccc1[C@H](c1cccc2ccccc12)[C@@](C)(C#N)C(=O)N1CCC(c2cccc(C(F)(F)F)c2)CC1 | 450 | 425 | 432 | 435 | 456 | 434 | 431 | 458 | 427
8 | CC(=O)N(C)C1(c2ccccc2)CCN(CCC[C@]2(c3ccc(Cl)c(Cl)c3)CCCN(C(=O)c3ccccc3)C2)CC1 | 346 | 387 | 366 | 305 | 303 | 326 | 294 | 344 | 343
9 | CC(C(C)N1CC(=O)NC(=O)C1)N1CC(=O)NC(=O)C1 (stereo not drawn) | 454 | 425 | 447 | 422 | 351 | 401 | 459 | 468 | 471
10 | NC(=O)c1cnccn1 | 463 | 465 | 461 | 462 | 461 | 465 | 464 | 471 | 457
11 | CCCCCCNC(=O)N1\C=C(F)/C(=O)NC1=O | 458 | 459 | 456 | 466 | 458 | 435 | 451 | 468 | 443
12 | CCc1ccc(OCc2ccccc2C(=O)Nc2ccc3nc(C)cc(N)c3c2)cc1 | 409 | 423 | 426 | 377 | 416 | 417 | 368 | 409 | 407
13 | O=C(O)CCCCCC(=O)NN=C1CCCC1 | 467 | 468 | 447 | 456 | 468 | 461 | 433 | 414 | 453
14 | Cc1ccc(C(=O)Nc2cccc(C(F)(F)F)c2)cc1Nc1nc(-c2cccnc2)nc2c1cnn2C | 421 | 393 | 416 | 362 | 411 | 407 | 392 | 396 | 409
15 | CC/C=C\C[C@H]1C(=O)CC[C@@H]1CC(=O)OC | 460 | 451 | 470 | 469 | 451 | 461 | 470 | 440 | 449
16 | COC1=CC=C(C=C1)/C2=C(O)/C(=O)C3=C(O)C=C(O)C(=C3O2)CC=C(C)C | 467 | 473 | 468 | 457 | 434 | 467 | 464 | 454 | 464
17 | Nc1nc(F)nc2c1ncn2[C@@H]1O[C@H](COP(=O)(O)O)[C@@H](O)[C@@H]1O | 448 | 460 | 454 | 353 | 398 | 352 | 420 | 456 | 448
18 | CCOC(=O)N1CCN(/[N+]([O-])=N/Oc2cc(O/N=[N+](\[O-])N3CCN(C(=O)OCC)CC3)c([N+](=O)[O-])cc2[N+](=O)[O-])CC1 | 460 | 476 | 450 | 449 | 464 | 474 | 476 | 460 | 463
19 | COc1cc2c(cc1OC)[C@@H]1Cc3ccc(OC)c(OC)c3CN1CC2 | 467 | 444 | 461 | 473 | 449 | 477 | 452 | 458 | 464
20 | CC(C)c1onc(-c2c(Cl)cccc2Cl)c1COc1ccc(/C=C/c2cccc(C(=O)O)c2)c(Cl)c1 | 450 | 445 | 452 | 466 | 465 | 443 | 454 | 447 | 466
21 | Cc1cc(Nc2ncc3c(n2)N(C)C(=O)N(c2cc(NC(=O)c4cccc(C(F)(F)F)c4)ccc2C)C3)n(C)n1 | 399 | 374 | 381 | 293 | 278 | 277 | 341 | 362 | 357
22 | C[S+](=O)([O-])Oc1ccc2c(NC(N)=O)c(C(=O)c3ccc(Cl)cc3Cl)oc2c1 | 455 | 463 | 466 | 433 | 442 | 464 | 449 | 460 | 462
